Assays:
[1] = tested on: human lung cancer NCI-H1581 xenografts; assay: Growth of subcutaneous xenografts of human lung cancer NCI-H1581 in nude mice; type: in vivo; conditions: for Relative tumor volume RTV (mean ± SD): NCI-H1581, 12.5 mg/kg orally once a day; for Weight (g, mean ± SD): NCI-H1581 tumor-bearing mice, 12.5 mg/kg orally once a day
Description: (§1) The diameter of the subcutaneously implanted tumor in nude mice was measured by a vernier caliper. […] In the compound HuFGFR267 50 mg/kg group, the compound was formulated with 0.5% methylcellulose (MC) to the required concentration before use. The formulation of compound was prepared once a week, and orally administered once a day for 14 days. The positive control drug AZD4547 was diluted to the required concentration with water for injection containing 1% Tween 80 before use. The formulation of AZD4547 was prepared once a week, and orally administered once a day for 14 days. In the solvent control group, an equal amount of water for injection was administrated.

[2] = tested on: human gastric cancer SNU-16 xenografts; assay: Growth of subcutaneous xenografts of human gastric cancer SNU-16 in nude mice (HuFGFR267 study); type: in vivo; conditions: for Relative tumor volume RTV (mean ± SD): SNU-16, 12.5 mg/kg orally once a day; for Weight (g, mean ± SD): SNU-16 tumor-bearing mice, 12.5 mg/kg orally once a day
Description: as §1, with “The formulation of compound was prepared once a week, and orally administered once a day for 14 days.” left out, “The formulation of AZD4547 was prepared once a week, and orally administered once a day for 14 days.” left out

[3] = Pharmacokinetic experiment in rat (IV and PO, plasma LC-MS/MS)
Description: (§2) Ponatinib (AP24534) was administered intravenously (IV) and orally (PO) to SD rats. Blood samples were taken at different time points. LC-MS/MS was used to determine the concentration of compound in the plasma of rats after administration of the test compound, and the relevant pharmacokinetic parameters were calculated to examine oral bioavailability and pharmacokinetic properties of the compound in rats.
as §2, with “Compound HuFGFR267” for “Ponatinib (AP24534)”, “intravenously” for “intravenously (IV)”, “orally” for “orally (PO)”

[4] = tested on: human gastric cancer SNU-16 xenografts; assay: Growth of subcutaneous xenografts of human gastric cancer SNU-16 in nude mice (comparative compounds study); conditions: for Relative tumor volume RTV (mean ± SD): SNU-16, 30 mg/kg orally once a day; for Weight (g, mean ± SD): SNU-16 tumor-bearing mice, 30 mg/kg orally once a day
[5] = target: FGFR1 (Homo sapiens, UniProt P11362); assay: Inhibition of receptor tyrosine kinase activity at molecular level (ELISA, Poly(Glu,Tyr)4:1 substrate phosphorylation); type: biochemical; conditions: 10 nM compound; average of two independent experiments
Sequence of FGFR1 (P11362 22-822): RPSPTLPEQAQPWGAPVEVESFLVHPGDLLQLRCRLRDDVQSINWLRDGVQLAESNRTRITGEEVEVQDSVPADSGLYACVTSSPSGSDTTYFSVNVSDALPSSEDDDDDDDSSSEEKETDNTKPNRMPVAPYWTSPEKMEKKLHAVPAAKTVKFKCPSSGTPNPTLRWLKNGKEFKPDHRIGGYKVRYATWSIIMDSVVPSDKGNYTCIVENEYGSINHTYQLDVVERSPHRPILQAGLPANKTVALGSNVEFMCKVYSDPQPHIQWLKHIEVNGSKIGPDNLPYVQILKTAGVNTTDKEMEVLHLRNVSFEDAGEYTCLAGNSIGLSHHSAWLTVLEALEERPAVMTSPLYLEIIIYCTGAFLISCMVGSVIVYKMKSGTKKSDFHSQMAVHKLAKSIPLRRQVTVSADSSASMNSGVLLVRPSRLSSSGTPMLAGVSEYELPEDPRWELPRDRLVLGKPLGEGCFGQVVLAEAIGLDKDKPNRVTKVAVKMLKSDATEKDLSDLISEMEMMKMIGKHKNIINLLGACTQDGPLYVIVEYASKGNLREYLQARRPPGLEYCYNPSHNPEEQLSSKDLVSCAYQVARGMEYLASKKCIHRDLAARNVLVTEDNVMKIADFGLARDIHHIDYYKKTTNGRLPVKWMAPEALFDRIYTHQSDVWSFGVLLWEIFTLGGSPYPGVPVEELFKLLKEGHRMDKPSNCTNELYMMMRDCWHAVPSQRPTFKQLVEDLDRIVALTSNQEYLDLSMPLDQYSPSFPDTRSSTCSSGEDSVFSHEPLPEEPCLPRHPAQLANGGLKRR
Description: (§3) Enzyme reaction substrate Poly(Glu, Tyr)4:1 was diluted with potassium-free PBS (10 mM sodium phosphate buffer, 150 mM NaCl, pH 7.2-7.4) to 20 μg/mL. […] The reaction was conducted under 37° C. for 12-16 hours. After the liquid was removed from the wells, the plate was washed three times with 200 μL/well of T-PBS (PBS containing 0.1% Tween-20), each for 5 minutes. The enzyme plate was dried in 37° C. dryer for 1-2 hours.
(§4) 50 μL ATP solution diluted with buffer (50 mM HEPES pH 7.4, 50 mM MgCl2, 0.5 mM MnCl2, 0.2 mM Na3VO4, 1 mM DTT) to a final concentration of 5 μM was added into each well. The compound was diluted with DMSO to a suitable concentration (1 μL/well) or the well contained the corresponding concentration of DMSO (negative control well) Then various kinase recombinant proteins diluted with 49 μL of reaction buffer was added to initiate the reaction. Each experiment required duplicate enzyme-free control well. The reaction was carried out for 1 hour on a 37° C. Shaker (100 rpm). The plate was washed three times with T-PBS. A dilution of the primary antibody PY99 was added (100 μL/well), and the reaction was conducted in a shaker at 37° C. for 0.5 hr. The plate was washed three times with T-PBS. A dilution of the horseradish peroxidase-labeled goat anti-mouse IgG secondary antibody was added (100 μL/well), and the reaction was conducted in a shaker at 37° C. for 0.5 hour. Plate was washed with T-PBS for three times. 2 mg/mL OPD coloration solution (diluted with 0.1 M citric acid-sodium citrate buffer containing 0.03% H2O2 (pH=5.4)) was added (100 μL/well), reacted for 1-10 minutes at 25° C. in dark. The reaction was quenched with 2M H2SO4 (50 μL/well), and read at 490 nm using a tunable microplate reader SPECTRA MAX 190.
(§5) The inhibition ratio of the sample was determined by the following formula: […]
(§6) The IC50 values were obtained via four-parameter regression analysis using the software supplied with the microplate reader.

[6] = target: RET (Homo sapiens, UniProt P07949); assay: as above; type: biochemical; conditions: for 10 nM inhibition ratio RET: 10 nM compound, average of two independent experiments
Sequence of RET (P07949 29-1114): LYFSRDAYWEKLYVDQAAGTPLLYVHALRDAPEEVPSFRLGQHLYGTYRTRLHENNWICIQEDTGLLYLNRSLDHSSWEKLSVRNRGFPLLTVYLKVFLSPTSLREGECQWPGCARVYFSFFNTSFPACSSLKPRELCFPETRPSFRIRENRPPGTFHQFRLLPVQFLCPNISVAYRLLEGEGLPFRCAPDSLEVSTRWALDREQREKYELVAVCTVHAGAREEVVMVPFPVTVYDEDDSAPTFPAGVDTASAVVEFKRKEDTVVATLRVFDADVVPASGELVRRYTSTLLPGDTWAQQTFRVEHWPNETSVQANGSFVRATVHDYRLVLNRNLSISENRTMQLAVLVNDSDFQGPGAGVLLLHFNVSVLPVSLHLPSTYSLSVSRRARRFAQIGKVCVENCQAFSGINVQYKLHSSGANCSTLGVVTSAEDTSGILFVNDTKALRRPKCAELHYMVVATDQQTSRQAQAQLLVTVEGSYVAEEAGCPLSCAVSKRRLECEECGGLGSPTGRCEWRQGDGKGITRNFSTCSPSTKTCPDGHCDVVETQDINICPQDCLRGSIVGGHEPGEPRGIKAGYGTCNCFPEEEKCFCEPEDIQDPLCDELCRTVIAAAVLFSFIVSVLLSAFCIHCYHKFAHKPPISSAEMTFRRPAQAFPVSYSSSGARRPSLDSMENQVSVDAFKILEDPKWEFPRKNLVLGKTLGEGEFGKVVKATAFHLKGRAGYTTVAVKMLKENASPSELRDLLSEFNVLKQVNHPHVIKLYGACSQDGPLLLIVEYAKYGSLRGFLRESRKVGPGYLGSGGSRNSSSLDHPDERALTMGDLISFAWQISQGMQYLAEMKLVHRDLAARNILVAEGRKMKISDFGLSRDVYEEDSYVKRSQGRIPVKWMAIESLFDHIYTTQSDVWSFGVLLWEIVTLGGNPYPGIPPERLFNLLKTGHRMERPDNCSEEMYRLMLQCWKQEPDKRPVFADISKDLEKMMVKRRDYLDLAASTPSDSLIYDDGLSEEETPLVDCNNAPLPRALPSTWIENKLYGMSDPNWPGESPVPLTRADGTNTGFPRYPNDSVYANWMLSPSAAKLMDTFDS
Description: as §3, §4, §5, §6

[7] = target: KDR (Homo sapiens, UniProt P35968); assay: as above; type: biochemical; conditions: 10 nM compound; average of two independent experiments
Sequence of KDR (P35968 20-1356): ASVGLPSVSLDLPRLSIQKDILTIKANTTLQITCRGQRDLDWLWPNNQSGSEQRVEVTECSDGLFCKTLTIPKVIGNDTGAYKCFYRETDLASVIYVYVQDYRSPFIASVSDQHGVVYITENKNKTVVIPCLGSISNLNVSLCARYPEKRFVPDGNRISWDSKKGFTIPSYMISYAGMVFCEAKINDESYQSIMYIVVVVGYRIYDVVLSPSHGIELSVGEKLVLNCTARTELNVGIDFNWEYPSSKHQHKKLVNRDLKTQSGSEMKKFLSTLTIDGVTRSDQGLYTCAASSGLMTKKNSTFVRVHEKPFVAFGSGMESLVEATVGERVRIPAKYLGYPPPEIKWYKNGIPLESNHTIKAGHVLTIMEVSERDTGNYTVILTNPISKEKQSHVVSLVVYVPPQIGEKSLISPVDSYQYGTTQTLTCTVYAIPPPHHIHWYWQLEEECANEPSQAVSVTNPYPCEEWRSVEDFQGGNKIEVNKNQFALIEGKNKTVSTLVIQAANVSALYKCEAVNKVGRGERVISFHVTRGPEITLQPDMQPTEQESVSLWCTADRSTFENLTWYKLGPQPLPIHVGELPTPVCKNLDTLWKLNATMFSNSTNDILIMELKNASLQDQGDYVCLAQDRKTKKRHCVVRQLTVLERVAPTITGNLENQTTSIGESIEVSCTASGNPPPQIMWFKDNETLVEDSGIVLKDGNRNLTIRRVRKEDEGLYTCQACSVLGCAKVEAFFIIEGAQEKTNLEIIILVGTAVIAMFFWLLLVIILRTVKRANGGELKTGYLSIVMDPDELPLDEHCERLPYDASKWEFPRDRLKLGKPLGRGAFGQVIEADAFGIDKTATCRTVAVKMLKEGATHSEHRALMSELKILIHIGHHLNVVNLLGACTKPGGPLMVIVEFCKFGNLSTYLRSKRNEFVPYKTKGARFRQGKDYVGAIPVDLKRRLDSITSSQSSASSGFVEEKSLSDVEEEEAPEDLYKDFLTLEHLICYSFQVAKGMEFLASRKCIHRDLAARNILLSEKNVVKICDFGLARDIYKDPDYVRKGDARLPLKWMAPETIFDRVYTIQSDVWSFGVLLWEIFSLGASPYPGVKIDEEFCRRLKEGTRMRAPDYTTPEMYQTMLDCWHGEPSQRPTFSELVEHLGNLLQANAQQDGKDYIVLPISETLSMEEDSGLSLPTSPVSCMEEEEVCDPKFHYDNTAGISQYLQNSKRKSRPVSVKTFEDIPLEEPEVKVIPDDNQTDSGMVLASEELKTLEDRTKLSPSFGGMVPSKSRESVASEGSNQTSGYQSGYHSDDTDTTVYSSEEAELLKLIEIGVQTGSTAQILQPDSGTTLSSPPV
Description: as §3, §4, §5, §6

[8] = tested on: RET signaling pathway in TT and BaF3/CCDC6-RET cells; assay: Western blotting of RET signaling pathway activation in cells; type: cell-based; conditions: compounds 2 hours; P-RET, P-AKT, P-ErK
Description: Detecting the Effect of Compounds on the Activation of RET Signaling Pathway in TT and BaF3/CCDC6-RET Cells by Western Blotting
The cells were seeded into a 12-well plate (250,000/well). After incubation for 18-24 hours, the compounds were added to react for 2 hours, and then the cells were collected and firstly washed once with cold PBS (containing 1 mmol sodium vanadate); then 1×SDS gel loading buffer (50 mmol Tris-HCl (pH 6.8), 100 mmol DTT, 2% SDS, 10% glycerol, 1 mmol sodium vanadate, 0.1% bromophenol blue) was added to lyse cells. The cell lysate was heated in a boiling water bath for 10 minutes, and then centrifuged at 12,000 rpm for 10 minutes at 4° C.
The supernatant was taken for SDS-PAGE electrophoresis (Mini-PROTEAN 3 Cell, Bio-Rad, Hercules, Calif., USA). After electrophoresis, the proteins were transferred to a nitrocellulose membrane using a semi-dry electrotransfer system (Amersham Life Sciences, Arlington Heights, Ill., USA). The nitrocellulose membrane was placed in a blocking solution (5% skim milk powder diluted in TBS containing 1 mmol sodium vanadate) for 2 hours at room temperature, and then the membrane was placed and reacted with a primary antibody at 4° C. overnight. […] The membrane was placed in a secondary antibody solution and reacted for 1-2 hours at room temperature. After the membrane was washed three times as above, the membrane was stained using ECL (Picece, Rockford, Ill.) reagent was used for staining and then developed.

[9] = target: T1, Ret (V804M) (Homo sapiens, UniProt P07949, V804M); assay: Inhibition of RET-related mutant enzyme activity (ELISA); type: biochemical; conditions: measured twice, Mean ± SD
T1 construct: purchased
T1 sequence (P07949 29-1114 V804M): as the sequence (P07949 29-1114) above, with V776M counted along it
Description: Enzyme reaction substrate Poly(Glu, Tyr)4:1 was diluted with potassium-free PBS (10 mM sodium phosphate buffer, 150 mM NaCl, pH 7.2-7.4) to 20 μg/mL. The enzyme label plate was coated with 125 μL/well. The reaction was conducted under 37° C. for 12-16 hours. After the liquid was removed from the wells, the plate was washed three times with 200 μL/well of T-PBS (PBS containing 0.1% Tween-20), each for 5 minutes. The enzyme plate was dried in 37° C. dryer for 1-2 hours.
50 μL ATP solution diluted with buffer (50 mM HEPES pH 7.4, 50 mM MgCl2, 0.5 mM MnCl2, 0.2 mM Na3VO4, 1 mM DTT) to a final concentration of 5 μM was added into each well. The compound was diluted with DMSO to a suitable concentration (1 μL/well) or the well contained the corresponding concentration of DMSO (negative control well) Then various kinase recombinant proteins diluted with 49 μL of reaction buffer was added to initiate the reaction. Each experiment required duplicate enzyme-free control well. The reaction was carried out for 1 hour on a 37° C. Shaker (100 rpm). […] The reaction was quenched with 2M H2SO4 (50 μL/well), and read at 490 nm using a tunable microplate reader SPECTRA MAX 190.
as §5
The IC50 values were obtained via four-parameter regression analysis using the software supplied with the microplate reader. […]

COc1cc(CCc2cc(NC(=O)c3ccc(N4C[C@@H](C)N[C@@H](C)C4)cc3)n[nH]2)cc(OC)c1 [AZD4547, reference compound]
relative tumor proliferation rate T/C ([1]; NCI-H1581, 12.5 mg/kg orally once a day for 14 days, 14th day): 24.03%
Relative tumor volume RTV (mean ± SD) ([1]; d0): 1.00 ± 0.00
Relative tumor volume RTV (mean ± SD) ([1]; d3): 1.27 ± 0.44
Relative tumor volume RTV (mean ± SD) ([1]; d7): 3.43 ± 1.14
Relative tumor volume RTV (mean ± SD) ([1]; d10): 5.57 ± 3.62
Relative tumor volume RTV (mean ± SD) ([1]; d14): 13.81 ± 4.56
animal deaths during the experiment ([1]; NCI-H1581, each group (HuFGFR267 50 mg/kg, AZD4547 12.5 mg/kg)): no mice died
Weight (g, mean ± SD) ([1]; d0): 18.2 ± 1.6 g
Weight (g, mean ± SD) ([1]; d3): 19.3 ± 1.6 g
Weight (g, mean ± SD) ([1]; d7): 20.1 ± 1.9 g
Weight (g, mean ± SD) ([1]; d10): 20.6 ± 2.2 g
Weight (g, mean ± SD) ([1]; d14): 21.3 ± 2.3 g
relative tumor proliferation rate T/C ([2]; SNU-16, 12.5 mg/kg orally once a day for 21 days, day 21): 18.46%
Relative tumor volume RTV (mean ± SD) ([2]; d0): 1.00 ± 0.00
Relative tumor volume RTV (mean ± SD) ([2]; d3): 0.92 ± 0.29
Relative tumor volume RTV (mean ± SD) ([2]; d7): 2.34 ± 1.23
Relative tumor volume RTV (mean ± SD) ([2]; d10): 2.96 ± 2.19
Relative tumor volume RTV (mean ± SD) ([2]; d14): 3.36 ± 3.14
Relative tumor volume RTV (mean ± SD) ([2]; d17): 3.77 ± 2.56
Relative tumor volume RTV (mean ± SD) ([2]; d21): 4.33 ± 3.29
animal deaths during the experiment ([2]; SNU-16, each group (HuFGFR267 50 and 25 mg/kg, AZD4547 12.5 mg/kg)): no mice died
Weight (g, mean ± SD) ([2]; d0): 18.8 ± 1.2 g
Weight (g, mean ± SD) ([2]; d3): 19.5 ± 1.3 g
Weight (g, mean ± SD) ([2]; d7): 20.0 ± 1.5 g
Weight (g, mean ± SD) ([2]; d10): 20.7 ± 1.5 g
Weight (g, mean ± SD) ([2]; d14): 21.1 ± 1.6 g
Weight (g, mean ± SD) ([2]; d17): 20.9 ± 1.7 g
Weight (g, mean ± SD) ([2]; d21): 21.0 ± 1.7 g

Cc1ccc(C(=O)Nc2ccc(CN3CCN(C)CC3)c(C(F)(F)F)c2)cc1C#Cc1cnc2cccnn12 [Ponatinib]
F ([3]; SD rats, PO (10 mg/kg) vs IV (2 mg/kg)): 24.4%
AUC0-t ([3]; SD, rat, plasma, iv, 2 mg/kg): 1410 ng·h/mL
Vd ([3]; SD, rat, plasma, iv, 2 mg/kg): 7.78 L/kg
clearance ([3]; SD, rat, plasma, iv, 2 mg/kg): 22.2 mL/min/kg
half-life ([3]; SD, rat, plasma, iv, 2 mg/kg): 4.24 h
AUC0-t ([3]; SD, rat, plasma, po, 10 mg/kg): 1600 ng·h/mL
Cmax ([3]; SD, rat, plasma, po, 10 mg/kg): 241 ng/mL
Tmax ([3]; SD, rat, plasma, po, 10 mg/kg): 2.33 h
half-life ([3]; SD, rat, plasma, po, 10 mg/kg): 8.29 h
relative tumor proliferation rate T/C ([4]; SNU-16, 30 mg/kg orally once a day for 21 days, day 21): 36.20%
Relative tumor volume RTV (mean ± SD) ([4]; d0): 1.00 ± 0.00
Relative tumor volume RTV (mean ± SD) ([4]; d3): 1.46 ± 0.30
Relative tumor volume RTV (mean ± SD) ([4]; d7): 1.56 ± 0.52
Relative tumor volume RTV (mean ± SD) ([4]; d10): 1.56 ± 0.22
Relative tumor volume RTV (mean ± SD) ([4]; d14): 2.00 ± 0.38
Relative tumor volume RTV (mean ± SD) ([4]; d17): 1.94 ± 0.47
Relative tumor volume RTV (mean ± SD) ([4]; d21): 2.10 ± 0.34
Weight (g, mean ± SD) ([4]; d0): 23.6 ± 2.5 g
Weight (g, mean ± SD) ([4]; d3): 24.2 ± 2.9 g
Weight (g, mean ± SD) ([4]; d7): 23.5 ± 2.8 g
Weight (g, mean ± SD) ([4]; d10): 23.7 ± 2.9 g
Weight (g, mean ± SD) ([4]; d14): 24.5 ± 2.8 g
Weight (g, mean ± SD) ([4]; d17): 24.1 ± 2.6 g
Weight (g, mean ± SD) ([4]; d21): 24.6 ± 3.1 g
10 nM inhibition ratio FGFR1 [5]: 79.5
10 nM inhibition ratio RET [6]: 87.5
10 nM inhibition ratio KDR [7]: 85.3
inhibition of RET phosphorylation and downstream signaling pathway (Western blot, FIG. 1) [8]: inhibited RET phosphorylation and the downstream signaling pathway

CN1CCN(Cc2ccc(NC(=O)c3cccc(C#Cc4cccnc4N)c3)cc2C(F)(F)F)CC1 [Example 6]
10 nM inhibition ratio FGFR1 [5]: 74.7
10 nM inhibition ratio RET [6]: 57.7
IC50 ([6]; measured twice, Mean ± SD): 6 ± 0.4 nM
10 nM inhibition ratio KDR [7]: 35.2
IC50 [9]: 17.9 ± 5.4 nM
inhibition of RET phosphorylation and downstream signaling pathway (Western blot, FIG. 1) [8]: inhibited RET phosphorylation and the downstream signaling pathway
